Where two headings read alike, the source gives them in different places.
Assays:
[1] = target: human growth hormone secretagogue receptor (hGHS-R1a) (Homo sapiens, UniProt Q92847); experiment: Competitive radioligand binding assay (ghrelin receptor), standard method A
[2] = Pharmacokinetic analysis (oral bioavailability, elimination half-life) in the rat; format: in vivo; conditions: oral administration, 8 mg/kg dose, HPLC-MS
Excerpt: D. Pharmacokinetic Analysis of Representative Compounds of the Invention
The pharmacokinetic behavior of compound of the invention can be ascertained by methods well known to those skilled in the art. (Wilkinson, G. R. “Pharmacokinetics: The Dynamics of Drug Absorption, Distribution, and Elimination” in Goodman & Gilman's The Pharmacological Basis of Therapeutics, Tenth Edition, Hardman, J. G.; Limbird, L. E., Eds., McGraw Hill, Columbus, Ohio, 2001, Chapter 1.) The following method was used to investigate the pharmacokinetic parameters (elimination half-life, total plasma clearance, etc.) for intravenous, subcutaneous and oral administration of compounds of the present invention. See also U.S. patent application Ser. No. 11/149,512 and Ser. No. 11/149,731 and Intl. Pat. Appl. No. PCT/US2007/017905.
The table below presents oral bioavailability and elimination half-life data in the rat for representative compounds of the present invention. The parameters were determined by HPLC-MS after oral administration of an 8 mg/kg dose of the compound, except for compound 822 where a 2 mg/kg dose was used.

fasted rats = experiment: Gastric emptying in fasted rat model, standard method E; format: in vivo; conditions: average where repeated
Procedure: E. Gastric Emptying in Fasted Rat Model
To examine the effects of compounds of the invention in a model for gastroparesis, compounds were evaluated for possible effects on gastric emptying in fasted rats. This model is used to determine the potential of compounds of the invention to promote motility in fasted rats.
• 1. Overnight-fasted rats (male, Wistar, 200 g, n=5/group) were given a meal (2 mL) of methylcellulose (2%) by intragastric gavage. The meal was labeled with phenol red (0.05%). • 2. Test articles (dosed at various concentrations, typically 1, 3, 10, 30 mg/kg), vehicle and positive control (metoclopramide, a 5-HT ligand and prokinetic agent currently prescribed for the treatment of GI disorders, including gastroparesis) were administered by oral gavage immediately after the meal (time=0). • 3. […] Total phenol red remaining in the stomach was quantified by a colorimetric method at 560 nm. • 5. A 30% or more increase in gastric emptying (as compared to the vehicle control) was considered significant. • 6. One-way ANOVA, Dunnet's post-hoc statistical test was applied Results
The effects of representative compounds of the invention in the rat gastric emptying model described in standard method E are provided in the following table. In cases where an experiment was conducted multiple times, the average of the individual results is presented.

human plasma = experiment: Plasma protein binding, human plasma (equilibrium dialysis); format: in vitro ADME
Excerpt: J. Plasma Protein Binding
The pharmacokinetic and pharmacodynamic properties of drugs are largely a function of the reversible binding of drugs to plasma or serum proteins such as albumin and α1-acid glycoprotein. In general, only unbound drug is available for diffusion or transport across cell membranes, and for interaction at the pharmacological target. On the other hand, drugs with low plasma protein binding generally have large volumes of distribution and rapid clearance since only unbound drug is available for glomerular filtration and, in some cases, hepatic clearance. Thus, the extent of plasma protein binding can influence efficacy, distribution and elimination. The ideal range for plasma protein binding is in the range of 87-98% for most drug products.
Protein binding studies were performed using human plasma. Briefly, 96-well microplates were used to incubate various concentrations of the test article for 60 min at 37° C. Bound and unbound fractions are separated by equilibrium dialysis, where the concentration remaining in the unbound fraction is quantified by LC-MS or LC-MS-MS analysis. […].
The table below presents protein binding data for representative compounds of the present invention in both human and rat plasma.

rat plasma = experiment: Plasma protein binding, rat plasma; format: in vitro ADME
[3] = target: GHS-R1a receptor (human ghrelin receptor) (Homo sapiens, UniProt Q92847); experiment: Aequorin functional assay (ghrelin receptor), standard method B; format: cell-based
Excerpt: B. Aequorin Functional Assay (Ghrelin Receptor)
See also U.S. patent application Ser. Nos. 11/149,512 and 11/149,731. (LePoul, E.; et al. J. Biomol. Screen. 2002, 7, 57-65; Bednarek, M. A.; et al. J. Med. Chem. 2000, 43, 4370-4376; Palucki, B. L.; et al. Bioorg. Med. Chem. Lett. 2001, 11, 1955-1957.) Functional activity at the gherlin receptor for representative compounds of the present invention is presented in the Examples.

[4] = binding activity at the human ghrelin receptor, standard method A
[5] = functional activity at the human ghrelin receptor, standard method B (Aequorin)

Chain of GHS-R1a receptor (human ghrelin receptor) (Q92847 whole entry): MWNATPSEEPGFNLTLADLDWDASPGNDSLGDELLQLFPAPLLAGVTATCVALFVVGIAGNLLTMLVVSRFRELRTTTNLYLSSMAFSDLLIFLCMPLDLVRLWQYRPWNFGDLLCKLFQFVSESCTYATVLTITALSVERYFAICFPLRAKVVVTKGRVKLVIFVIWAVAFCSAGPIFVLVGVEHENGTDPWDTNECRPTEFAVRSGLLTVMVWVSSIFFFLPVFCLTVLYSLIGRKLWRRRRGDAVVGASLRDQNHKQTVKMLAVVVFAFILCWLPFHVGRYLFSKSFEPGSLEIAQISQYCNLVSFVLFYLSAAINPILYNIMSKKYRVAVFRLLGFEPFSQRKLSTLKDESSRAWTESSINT
Chain of human growth hormone secretagogue receptor (hGHS-R1a) (Q92847 whole entry): as above

| SMILES | Ki [1, 4] | Elimination Half-life (t1/2, rat, min) [2] | Oral Bioavailability (rat, % F) [2] | Percent Increase in Gastric Emptying After Oral Administration (fasted rats; dose 3 mg/kg) | EC50 [3, 5] | further results |
| --- | --- | --- | --- | --- | --- | --- |
| CC1CNC(C2CCCCC2)C(=O)N(C)C(C)C(=O)NC(Cc2ccc(O)cc2)C(=O)NCCCC2CCCCC2O1 (mixture of isomers) [Compound 829] | ≤ 1 nM | 45 min | 8 % F | 28% | – | Human Plasma Protein Binding (%) (human plasma; test concentration 3 μg/mL): 91.6% |
| CC1CNC(C2CC2)C(=O)N(C)C(C)C(=O)NC(Cc2ccc(O)c(F)c2)C(=O)NCCCC2CCCCC2O1 (mixture of isomers) [Compound 832] | ≤ 1 nM | – | – | 13% | – | Human Plasma Protein Binding (%) (human plasma; test concentration 3 μg/mL): 88.9%; Rat Plasma Protein Binding (%) (rat plasma; test concentration 3 μg/mL): 97.3% |
| CC1CNC(C2CC2)C(=O)N(C)C(C)C(=O)NC(CC(C)(C)C)C(=O)NCCCC2CCCCC2O1 (mixture of isomers) [Compound 833] | ≤ 10 nM | – | – | 6% | – | Human Plasma Protein Binding (%) (human plasma; test concentration 3 μg/mL): 77.4%; Rat Plasma Protein Binding (%) (rat plasma; test concentration 3 μg/mL): 94.0% |
| CC(C)C[C@H]1NC(=O)[C@@H](C)N(C)C(=O)[C@H](C2CC2)NC[C@H]2CCc3cccc(c3O2)CCCNC1=O [Compound 802] | ≤ 100 nM | 160 min | 26 % F | 11% | ≤ 100 nM | Percent Increase in Gastric Emptying After Oral Administration (fasted rats; dose 1 mg/kg): 12%; Percent Increase in Gastric Emptying After Oral Administration (fasted rats; dose 10 mg/kg): 26%; Human Plasma Protein Binding (%) (human plasma; test concentration 1 μg/mL): 93.4%; Rat Plasma Protein Binding (%) (rat plasma; test concentration 1 μg/mL): 99.8% |
| C[C@@H]1CN[C@@H](C2CC2)C(=O)N(C)[C@H](C)C(=O)N[C@H](Cc2ccc(O)cc2)C(=O)N[C@@H](C)CCc2ccccc2O1 [Compound 808] | ≤ 100 nM | 238 min | 18 % F | 37% | – | Percent Increase in Gastric Emptying After Oral Administration (fasted rats; dose 1 mg/kg): 18%; Percent Increase in Gastric Emptying After Oral Administration (fasted rats; dose 10 mg/kg): 40%; Human Plasma Protein Binding (%) (human plasma; test concentration 5 μg/mL): 99.9%; Rat Plasma Protein Binding (%) (rat plasma; test concentration 5 μg/mL): 89.2% |
| CC(C)CC1NC(=O)C(C)N(C)C(=O)C(C2CC2)NC(C)C(C)Oc2ccccc2CCCNC1=O (centres unmarked) [Compound 819] | ≤ 10 nM | 116 min | 12 % F | 21% | – | Percent Increase in Gastric Emptying After Oral Administration (fasted rats; dose 1 mg/kg): 9%; Percent Increase in Gastric Emptying After Oral Administration (fasted rats; dose 10 mg/kg): 18%; Human Plasma Protein Binding (%) (human plasma; test concentration 3 μg/mL): 95.2%; Rat Plasma Protein Binding (%) (rat plasma; test concentration 3 μg/mL): 98.2% |
| C[C@@H]1CN[C@@H](C2CC2)C(=O)N(C)[C@H](C)C(=O)N[C@H](Cc2ccc(Cl)cc2)C(=O)NCCCc2ccc(F)cc2O1 [Compound 877] | – | – | 15 % F | – | – | Ki [1]: ≤ 100 nM; EC50 [3]: ≤ 50 nM; half-life ([2]; plasma, read-out: Elimination Half-life (t1/2, rat, min)): 255 min |
| CC(C)C[C@H]1NC(=O)[C@@H](C)N(C)C(=O)[C@H](C2CC2)NC[C@@H](C)Oc2ccccc2CCCNC1=O [Compound 968] | ≤ 100 nM | 103 min | 26 % F | – | ≤ 400 nM | – |
| C[C@@H]1CN[C@@H](C2CC2)C(=O)N(C)[C@H](C)C(=O)N[C@H](Cc2cccnc2)C(=O)NCCCc2ccccc2O1 [Compound 975] | ≤ 100 nM | – | – | – | > 400 nM | – |
| CC[C@H](C)[C@@H]1NC[C@@H](C)Oc2ccccc2CCCNC(=O)[C@@H](Cc2cccnc2)NC(=O)[C@@H](C)N(C)C1=O [Compound 976] | ≤ 100 nM | – | – | – | ≤ 400 nM | – |
| C[C@@H]1CN[C@@H](C2CCCCC2)C(=O)N(C)[C@H](C)C(=O)N[C@H](Cc2ccc(F)cc2)C(=O)NCCCc2ccccc2O1 [Compound 982] | ≤ 1 nM | – | – | – | ≤ 50 nM | – |
| C[C@@H]1C(=O)N[C@H](Cc2ccc(F)cc2)C(=O)NCCCc2cccc3c2O[C@H](CC3)CN[C@@H](C2CC2)C(=O)N1C [Compound 1009] | ≤ 1 nM | – | – | – | ≤ 50 nM | – |
| C[C@@H]1CN[C@@H](C2CC2)C(=O)N(C)[C@H](C)C(=O)N[C@H]([C@H](C)c2ccc(F)cc2)C(=O)NCCCc2ccccc2O1 [Compound 1018] | ≤ 100 nM | – | – | – | ≤ 400 nM | – |
| C[C@@H]1CNC(=O)[C@@H](Cc2ccc(F)cc2)NC(=O)[C@@H](C)N(C)C(=O)[C@H](C2CC2)NC[C@@H](C)Oc2ccccc2C1 [Compound 1033] | ≤ 100 nM | – | – | – | ≤ 100 nM | – |
| CC1CNC(C2CC2)C(=O)N(C)C(C)C(=O)NC(CC(C)(C)C)C(=O)NCCCc2ccccc2O1 (centres unmarked) [Compound 1043] | ≤ 100 nM | – | – | – | ≤ 100 nM | – |
| CC(C)[C@@H](O)[C@H]1NC(=O)[C@@H](C)N(C)C(=O)[C@H](C2CC2)NC[C@@H](C)Oc2ccccc2CCCNC1=O [Compound 1058] | ≤ 100 nM | – | – | – | ≤ 100 nM | – |
| CC(C)C[C@H]1NC(=O)[C@@H](C)N(C)C(=O)[C@H](C2CCCCC2)NC[C@@H](C)Oc2cccnc2CCCNC1=O [Compound 1061] | ≤ 100 nM | 23 min | 4 % F | – | ≤ 100 nM | – |
| C[C@@H]1CN[C@@H](C2CCCCC2)C(=O)N(C)[C@H](C)C(=O)N[C@H](Cc2ccc(O)cc2)C(=O)NCCCc2ncccc2O1 [Compound 1062] | ≤ 10 nM | – | – | – | ≤ 50 nM | – |
| CC1C(=O)NC(Cc2ccc(O)cc2)C(=O)NCCCC2CCCCC2OCCNC(C2CC2)C(=O)N1C (centres unmarked) [Compound 1118] | ≤ 10 nM | – | – | – | – | Human Plasma Protein Binding (%) (human plasma; test concentration 3 μg/mL): 92.8%; Rat Plasma Protein Binding (%) (rat plasma; test concentration 3 μg/mL): 95.5% |

From US10258602B2 (Ocera Therapeutics, Inc., priority 2007, dated 2019)
